Assay results: article PMC11844072, “Novel 5,6-dichlorobenzimidazole derivatives as dual BRAFWT and BRAFV600E inhibitors: design, synthesis, anti-cancer activity and molecular dynamics simulations” (BMC Chemistry, 2025)

Experiments:
Experiment in all cases: NCI 60 single concentration growth inhibition
Assay type in all cases: cell-based, human
A498 = settings: A498, Renal cancer; for GI%: 10 μM
Summary of the method: (§1)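 Read-out is SRB absorbance at 515 nm after TCA fixation (10% for adherent lines, 16% for suspension lines). Drugs were applied for 48 h following a 24 h plating period. Growth percentages came from time-zero, control and treated absorbances.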

ACHN = settings: Renal cancer; for GI%: 10 μM
Summary of the method: as §1

CAKI-1 = settings: CAKI-1, Renal cancer; for GI%: 10 μM
Summary of the method: as §1

EKVX = settings: Non-small cell lung cancer; for GI%: 10 μM
Summary of the method: as §1

HOP-62 = settings: HOP-62, Non-small cell lung cancer; for GI%: 10 μM
Summary of the method: as §1

MDA-MB-468 = settings: MDA-MB-468, Breast cancer; for GI%: 10 μM
Summary of the method: as §1

NCI-H23 = settings: NCI-H23, Non-small cell lung cancer; for GI%: 10 μM
Summary of the method: as §1

PC-3 = settings: PC-3, Prostate cancer; for GI%: 10 μM
Summary of the method: as §1

SF-295 = settings: SF-295, CNS cancer; for GI%: 10 μM
Summary of the method: as §1

SK-OV-3 = settings: SK-OV-3, Ovarian cancer; for GI%: 10 μM
Summary of the method: as §1

DU-145 = settings: DU-145, Prostate cancer; for GI%: 10 μM
Method: (§2) The synthesized dichlorobenzimidazoles 10a–p were assayed for their influence on divers cancer cell lines according to the method presented in the Additional file A.
(§3) 5. Screening of cytotoxic activity against a panel of sixty human tumor cell lines
(§4) The selected compounds by NCI were evaluated for their anticancer activity in a two-stage process. First, these compounds were screened against the full NCI 60 cell lines panel at a single high dose of 10 µM. Then, the output from the single dose screen is reported as a mean graph. […]
(§5) Assay protocol. The human tumor cell lines of the cancer screening panel are grown in RPMI 1640 medium containing 5% fetal bovine serum and 2 mM L-glutamine. For a typical screening experiment, cells are inoculated into 96 well microtiter plates in 100 µL at plating densities ranging from 5000 to 40,000 cells/well depending on the doubling time of individual cell lines. After cell inoculation, the microtiter plates are incubated at 37 °C, 5% CO 2, 95% air and 100% relative humidity for 24 h prior to addition of the experimental drugs.
(§6) After 24 h, two plates of each cell line are fixed in situ with TCA, to represent a measurement of the cell population for each cell line at the time of drug addition (Tz). The experimental drugs are solubilized in dimethyl sulfoxide at 400-fold the desired final maximum test concentration and stored frozen prior to use. At the time of drug addition, an aliquot of frozen concentrate is thawed and diluted to twice the desired final maximum test concentration with complete medium containing 50 µg/mL gentamicin. Additional four, 10-fold or ½ log serial dilutions are made to provide a total of five drug concentrations plus control.
(§7) Aliquots of […] of these different drug dilutions are added to the appropriate microtiter wells already containing […] of medium, resulting in the required final drug concentrations.
(§8) Following drug addition, the plates are incubated for an additional 48 h at 37 °C, 5% CO 2, 95% air, and 100% relative humidity. For adherent cells, the assay is terminated by the addition of cold TCA.
(§9) Cells are fixed in situ by the gentle addition of 50 µL of cold 50% (w/v) TCA (final concentration, 10% TCA) and incubated for 60 min at 4 °C. The supernatant is discarded, and the plates are washed five times with tap water and air dried. Sulforhodamine B (SRB) solution ([…]) at 0.4% (w/v) in 1% acetic acid is added to each well, and plates are incubated for 10 min at room temperature. After staining, unbound dye is removed by washing five times with 1% acetic acid and the plates are air dried. Bound stain is subsequently solubilized with 10 mM trizma base, and the absorbance is read on an automated plate reader at a wavelength of 515 nm. For suspension cells, the methodology is […]
(§10) the same except that the assay is terminated by fixing settled cells at the bottom of the wells by gently adding 50 µl of 80% TCA (final concentration, 16% TCA). Using the seven absorbance measurements [time zero, (Tz), control growth, (C), and test growth in the presence of drug at the five concentration levels (Ti)], the percentage growth is calculated at each of the drug concentrations […]
(§11) Percentage growth inhibition is calculated as: [(Ti Tz)/(C–Tz)] x 100 for concentrations for which Ti>/=Tz and [(Ti-Tz)/Tz] x 100 for concentrations for which Ti < Tz. […]
(§12) Results for each compound were reported as a mean graph of the percent growth of the treated cells when compared to the untreated control cells. There after obtaining the results for one dose assay, analysis of historical Development Therapeutics Programme (DTP) was performed and compounds which satisfies predetermined threshold inhibition criteria is selected for NCI full panel 5 dose assay.

HCT-15 = settings: HCT-15, Colon cancer; for GI%: 10 μM
Method: as §2, §3, §4, §5, §6, §7, §8, §9, §10, §11, §12

HT29 = settings: for GI%: HT29, Colon cancer, 10 μM
Method: as §2, §3, §4, §5, §6, §7, §8, §9, §10, §11, §12

LOX IMVIL = settings: Melanoma; for GI%: 10 μM
Method: as §2, §3, §4, §5, §6, §7, §8, §9, §10, §11, §12

NCI-H522 = settings: NCI-H522, Non-small cell lung cancer; for GI%: 10 μM
Method: as §2, §3, §4, §5, §6, §7, §8, §9, §10, §11, §12

OVCAR-3 = settings: OVCAR-3, Ovarian cancer; for GI%: 10 μM
Method: as §2, §3, §4, §5, §6, §7, §8, §9, §10, §11, §12

OVCAR-4 = settings: OVCAR-4, Ovarian cancer; for GI%: 10 μM
Method: as §2, §3, §4, §5, §6, §7, §8, §9, §10, §11, §12

TK-10 = settings: TK-10, Renal cancer; for GI%: 10 μM
Method: as §2, §3, §4, §5, §6, §7, §8, §9, §10, §11, §12

U251 = settings: for GI%: U251, CNS cancer, 10 μM
Method: as §2, §3, §4, §5, §6, §7, §8, §9, §10, §11, §12

## 2-(4-((2-(2-(5,6-Dichloro-2-(4-methoxyphenyl)-1H-benzo[d]imidazol-1-yl)acetyl)hydrazono)methyl) -2-methoxyphenoxy)acetic acid [Compound 10m]
A498
  GI%: – (GI% < 5%)
ACHN
  GI%: – (GI% < 5%)
CAKI-1
  GI%: – (GI% < 5%)
EKVX
  GI%: – (GI% < 5%)
HOP-62
  GI%: – (GI% < 5%)
MDA-MB-468
  GI%: – (GI% < 5%)
NCI-H23
  GI%: 8.00%
PC-3
  GI%: – (GI% < 5%)
SF-295
  GI%: – (GI% < 5%)
SK-OV-3
  GI%: – (GI% < 5%)
DU-145
  GI%: – (GI% < 5%)
HCT-15
  GI%: – (GI% < 5%)
HT29
  GI%: – (GI% < 5%)
LOX IMVIL
  GI%: – (GI% < 5%)
NCI-H522
  GI%: 6.07%
OVCAR-3
  GI%: – (GI% < 5%)
OVCAR-4
  GI%: – (GI% < 5%)
TK-10
  GI%: – (GI% < 5%)
U251
  GI%: – (GI% < 5%)

## 2-(5-((2-(2-(5,6-Dichloro-2-(4-methoxyphenyl)-1H-benzo[d]imidazol-1-yl)acetyl)hydrazono)methyl)-2-methoxyphenoxy)acetic acid [Compound 10n]
A498
  GI%: – (GI% < 5%)
ACHN
  GI%: – (GI% < 5%)
CAKI-1
  GI%: – (GI% < 5%)
EKVX
  GI%: – (GI% < 5%)
HOP-62
  GI%: – (GI% < 5%)
MDA-MB-468
  GI%: 12.44%
NCI-H23
  GI%: 9.67%
PC-3
  GI%: 10.81%
SF-295
  GI%: – (GI% < 5%)
SK-OV-3
  GI%: – (GI% < 5%)
DU-145
  GI%: – (GI% < 5%)
HCT-15
  GI%: – (GI% < 5%)
HT29
  GI%: – (GI% < 5%)
LOX IMVIL
  GI%: 10.35%
NCI-H522
  GI%: 8.04%
OVCAR-3
  GI%: – (GI% < 5%)
OVCAR-4
  GI%: – (GI% < 5%)
TK-10
  GI%: – (GI% < 5%)
U251
  GI%: – (GI% < 5%)

## 3-(4-((2-(2-(5,6-Dichloro-2-(4-methoxyphenyl)-1H-benzo[d]imidazol-1-yl)acetyl)hydrazono)methyl)phenoxy)propanoic acid [Compound 10i]
A498
  GI%: – (GI% < 5%)
ACHN
  GI%: 5.11%
CAKI-1
  GI%: 10.19%
EKVX
  GI%: 20.53%
HOP-62
  GI%: – (GI% < 5%)
MDA-MB-468
  GI%: 10.83%
NCI-H23
  GI%: 13.85%
PC-3
  GI%: 19.27%
SF-295
  GI%: 15.06%
SK-OV-3
  GI%: 6.27%
DU-145
  GI%: – (GI% < 5%)
HCT-15
  GI%: 21.36%
HT29
  GI%: – (GI% < 5%)
LOX IMVIL
  GI%: 10.92%
NCI-H522
  GI%: 10.42%
OVCAR-3
  GI%: – (GI% < 5%)
OVCAR-4
  GI%: – (GI% < 5%)
TK-10
  GI%: – (GI% < 5%)
U251
  GI%: 7.22%

## COc1ccc(-c2nc3cc(Cl)c(Cl)cc3n2CC(=O)NN=Cc2cccc(O)c2)cc1 [Compound 10a, 2-(5,6-Dichloro-2-(4-methoxyphenyl)-1H-benzo[d]imidazol-1-yl)-N'-(3-hydroxybenzylidene)acetohydrazide]
A498; Homo sapiens, read-out: GI%
  inhibition at 10 µM: 48.9%
ACHN; Homo sapiens, read-out: GI%
  inhibition at 10 µM: 40%
CAKI-1; Homo sapiens, read-out: GI%
  inhibition at 10 µM: 55%
EKVX; Homo sapiens, read-out: GI%
  inhibition at 10 µM: 76.6%
HOP-62; Homo sapiens, read-out: GI%
  inhibition at 10 µM: 24.1%
MDA-MB-468; Homo sapiens, read-out: GI%
  inhibition at 10 µM: 82.1%
NCI-H23; Homo sapiens, read-out: GI%
  inhibition at 10 µM: 53.8%
PC-3; Homo sapiens, read-out: GI%
  inhibition at 10 µM: 57.8%
SF-295; Homo sapiens, read-out: GI%
  inhibition at 10 µM: 67.8%
SK-OV-3; Homo sapiens, read-out: GI%
  inhibition at 10 µM: 35.5%
DU-145; Homo sapiens, read-out: GI%
  inhibition at 10 µM: 44.2%
HCT-15; Homo sapiens, read-out: GI%
  inhibition at 10 µM: 60%
HT29; Homo sapiens, HT-29, HT29, Colon cancer, read-out: GI%
  inhibition at 10 µM: 41.2%
LOX IMVIL; Homo sapiens, read-out: GI%
  inhibition at 10 µM: 29%
NCI-H522; Homo sapiens, read-out: GI%
  inhibition at 10 µM: 30%
OVCAR-3; Homo sapiens, read-out: GI%
  inhibition at 10 µM: 36.6%
OVCAR-4; Homo sapiens, read-out: GI%
  inhibition at 10 µM: 68.1%
TK-10; Homo sapiens, read-out: GI%
  inhibition at 10 µM: 37.2%
U251; Homo sapiens, U-251, U251, CNS cancer, read-out: GI%
  inhibition at 10 µM: 39.3%
